In patent publication US20250195488A1, “MEDICINE CONTAINING VITAMIN D DERIVATIVE OR PHARMACEUTICALLY ACCEPTABLE SALT OR SOLVATE THEREOF, USED IN COMBINATION WITH IMMUNOMODULATORY SUBSTANCE” (TEEJIN PHARMA LIMITED, priority 2022, published 2025):

Legend:
human VDR = target: T1, human VDR (Homo sapiens, UniProt P11473); assay: Evaluation of VDR transcription activity in human osteoblasts (HOS cells), luciferase reporter; format: cell-based; conditions: read-out: Activity (EC50 of VDR transcriptional activity)
T1 construct: expressed in transfected cells; host or cells: HOS cells (ATCC), human osteoblast line; pcDNA3 expression vector
T1 sequence (P11473 1-427): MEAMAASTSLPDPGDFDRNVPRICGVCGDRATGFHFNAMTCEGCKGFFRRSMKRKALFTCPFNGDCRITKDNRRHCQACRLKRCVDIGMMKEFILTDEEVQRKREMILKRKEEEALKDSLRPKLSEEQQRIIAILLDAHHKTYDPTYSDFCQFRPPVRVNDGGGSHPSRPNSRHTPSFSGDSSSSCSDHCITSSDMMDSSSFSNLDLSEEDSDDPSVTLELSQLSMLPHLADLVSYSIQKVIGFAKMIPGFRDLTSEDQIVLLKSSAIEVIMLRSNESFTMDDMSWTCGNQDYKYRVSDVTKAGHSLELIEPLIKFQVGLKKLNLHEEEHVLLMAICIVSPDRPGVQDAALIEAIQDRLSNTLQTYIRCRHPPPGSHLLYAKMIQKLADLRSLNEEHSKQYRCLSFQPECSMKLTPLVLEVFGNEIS
T1 sequence (P19793 1-462 partner): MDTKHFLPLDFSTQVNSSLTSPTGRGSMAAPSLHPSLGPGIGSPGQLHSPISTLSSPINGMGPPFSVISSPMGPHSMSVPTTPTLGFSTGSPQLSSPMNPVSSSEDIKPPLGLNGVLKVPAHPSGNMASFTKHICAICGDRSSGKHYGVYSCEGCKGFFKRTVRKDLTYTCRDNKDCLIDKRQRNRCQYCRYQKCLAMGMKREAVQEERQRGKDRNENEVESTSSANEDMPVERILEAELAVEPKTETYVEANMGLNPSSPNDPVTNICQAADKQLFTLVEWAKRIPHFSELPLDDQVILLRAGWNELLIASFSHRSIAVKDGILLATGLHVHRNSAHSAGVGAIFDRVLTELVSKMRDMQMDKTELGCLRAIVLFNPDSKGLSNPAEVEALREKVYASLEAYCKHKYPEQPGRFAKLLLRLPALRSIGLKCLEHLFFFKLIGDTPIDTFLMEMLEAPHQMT
Procedure: (1) A reporter vector was constructed using pGL4.26 vector (Promega Corporation) and incorporating a sequence of DR3 (×4) gene promoter portion upstream of the luciferase gene. An expression vector was constructed by inserting a DNA sequence encoding human VDR and human RXRα into pcDNA3 vector (Thermo Fisher Scientific, Inc.). Human RenillaLuc-CMV vector (Promega Corporation) was used for the correction of gene transfer efficiency. HOS cells (ATCC) were cultured in DMEM medium containing 10% FBS under the condition of 37° C. and 5% CO2, and passaged every 2 or 3 days. (2) The passaged cells were collected by centrifugation and dispersed in phenol red free DMEM medium containing deactivated and 5% charcoal-treated fetal bovine serum (CSS) at a density of 4×10^5 cells/mL, and then the various vectors described in (1) were introduced using Lipofectamine LTX (Thermo Fisher Scientific, Inc.) reagent at a ratio of 0.25 mL per 1 mL of the cell solution. […] (3) After the incubation for 21 hours under the condition of 37° C. and 5% CO2, the luciferase activity was measured by multi-label counter EnVision (PerkinElmer, Inc.) using Dual-Glo Luciferase Assay kit (Promega Corporation). At the same time, the activity of Renilla luciferase was measured and used to correct the gene transfer efficiency.

[1] = test system: rat oligodendrocyte progenitor cells; assay: Promotive activity of rat oligodendrocyte progenitor cell differentiation-2 (immunostaining of MBP); format: cell-based; conditions: Test 2; vitamin D derivative 2 μM, T3 30 nM, 4 days; DMSO 0.07
Procedure: The promotive activity of oligodendrocyte progenitor cell (OPC) differentiation of the vitamin D derivatives was evaluated by immunostaining of MBP.
Subsequently, oligodendrocyte progenitor cell separation medium was added to the flask, and the mixture was similarly shaken for about 22 hours (37° C., 200 rpm), and the supernatant was collected to prepare oligodendrocyte progenitor cells.

EC50 (human VDR)	SMILES	mean (number of MBP-positive cells/number of Hoechst33342-positive cells) [1]
100 to 1000 nM	C[C@H](CN1CC[C@@H](F)C1)[C@H]1CC[C@H]2/C(=C/C=C3C[C@@H](O)C[C@H](O)C3)CCC[C@]12C [Compound B013, (1R,3R)-5-(2-((1R,3aS,7aR,E)-1-((S)-1-((R)-3-fluoropyrrolidin-1-yl)propan-2-yl)-7a-methyloctahydro-4H-inden-4-ylidene)ethylidene)cyclohexane-1,3-diol]	
	C[C@H](CN1CC[C@@H](CC(F)F)C1)[C@H]1CC[C@H]2/C(=C/C=C3C[C@@H](O)C[C@H](O)C3)CCC[C@]12C [Compound B043, (1R,3R)-5-(2-((1R,3aS,7aR,E)-1-((S)-1-((S)-3-(2,2-difluoroethyl)pyrrolidin-1-yl)propan-2-yl)-7a-methyloctahydro-4H-inden-4-ylidene)ethylidene)cyclohexane-1,3-diol]	0.53
